# Experiments:
# [1] = test system: human gastric cancer cell line SGC7901; assay: MTT assay, inhibition of cell growth; assay type: cell-based; conditions: dissolved with 10% ethanol; for Inhibitory rate (%) on cell growth: 24 hours, listed as extracted iso-C15
# Description: (§1) MTT assay was performed to test the cytotoxicity. The K562 and SGC7901 cells were maintained in exponential growth in RPMI 1640 medium supplemented with 15% heat-inactivated newborn calf serum. The cells were plated at a density of 2×10^4 cells/100 μl medium/well into 96-well plate with medium containing samples in five final concentrations (7.5, 15, 30, 60 and 90 μg/ml) for iso-C15 (either synthesized or extracted) and one final concentration (30 μg/ml) for the others. The media in control wells contained no samples. The cells were incubated at 37° C. in a highly humidified incubator under 5% CO2 atmosphere for 24 hours. The supernatant was removed by fast inversion of the plate. 20 μl of 5 mg/ml MTT solution were added into each well. Incubation was continued for 4 hours. DMSO 100 μl/well was added and the plate was vibrated for 10 minutes. A570nm was read at the Immunoreader BioTek EL311S.
# (§2) The inhibition rate (%)=1−(mean A570nm in test wells/mean A570nm in control wells)
# [2] = test system: Human leukemia cell line K562; assay: MTT assay, inhibition of cell growth; assay type: cell-based; conditions: for Inhibitory rate (%) on cell growth: 24 hours, dissolved with 10% ethanol, listed as extracted iso-C15
# Description: as §1, §2
# [3] = test system: human hepatocellular carcinoma LCI-D35; assay: Orthotopic nude mice model of human hepatocellular carcinoma LCI-D35; assay type: in vivo, athymic BALB/c nude mice
# Description: 13-methyltetradecanoic acid (iso-C15) was chemically synthesized in the inventor's laboratory, as described in Example 5, infra, (purity of 99.8%), was prepared by dissolving in NaOH solution and then in 0.35% Tween 80 with pH7.5.
# Total of 16 male and female athymic BALB/c nude mice between 4 and 5 weeks of age were bred and maintained in specific pathogen free condition.
# Human hepatocellular carcinoma LCI-D35 was originally obtained from the primary tumor of a patient. The tumor was implanted and maintained subcutaneously in athymic nude mice. Prior to orthotopic implantation, the tumor was harvested in log phase. The peripheral tumor tissue was collected and minced to small pieces of one cubic millimeter each.
# The mice were anesthetized for surgical orthotopic implantation. A small incision was made along the midline of the upper abdomen. The left lobe of the liver was exposed and a small incision was made on the liver surface. Two of the tumor fragments above were sutured into the incision using 8-0 suture. The abdomen was then closed using a 6-0 surgical suture.
# The mice bearing orthotopic LCI-D35 were randomly divided into control and test groups of eight mice each at the second day after tumor implantation. The iso-C15 prepared above at dose 70 mg/kg and PBS were administered by gavage once a day in the test and control group, respectively, for 40 days.
# (§3) All the mice were sacrificed by CO2 inhalation at day-40 after the start of treatment. The weights of primary tumors and bodies were measured. Tissue samples of the primary tumors were processed through standard procedures of hematoxylin and eosin staining for microscopic examination.
# (§4) The tumor inhibition rates (TIR) were determined by comparing the mean tumor weight of the test groups (T) with that of the control group (C) and expressed as a (C)−T)/C percentage, and were analyzed by Student's test for statistical significance.
# normal human PBLs = assay: In situ cell death detection, POD; assay type: cell-based; conditions: 60 μg/ml, 8 hours
# Source text: In Situ Cell Death Detection Kit, POD (Mannheim Boehringer GmbH) was used to detect the individual apoptotic cells. Cleavage of genomic DNA during apoptosis may yield double-stranded, low molecular weight DNA fragments as well as single strand breaks in high molecular weight DNA. Those DNA strand breaks can be identified by labeling free 3′-OH termini with modified nucleotides in an enzymatic reaction. In this kit terminal deoxynucleotidyl transferase (TdT) is used to label free 3′-OH ends in genomic DNA with fluorescein-dUTP. The incorporated fluorescein is visualized under fluorescence microscope directly. The incorporated fluorescein can also bind to anti-fluorescein antibody POD and be detected by substrate reaction. Stained cells can be analyzed under light microscope.
# Four human tumor cell lines, K-562 human leukemia, SNU-1 human gastric carcinoma cell lines, MCF-7 human breast adenocarcinoma and H1688 human small cell lung carcinoma cell lines, as well as Human PBLs were treated with iso-C15 (60 μg/ml).
# H1688, K-562 and DU145 human cancer cells and normal human PBLs were added with POD and incubated 30 min at 37° C., washed three times with PBS, then reacted with substrate AEC and incubated for 10 min at room temperature. The cells were analyzed under light microscope. […] It is evidenced that iso-C15 induces apoptosis of cancer cells but not normal human cells.
# [4] = test system: human prostate carcinoma DU145; assay: Orthotopic nude mice model of human prostate carcinoma DU145; assay type: in vivo; conditions: for Mean tumor weight / TIR (tumor inhibition rate): oral once a day
# Description: 13-methyltetradecanoic acid (iso-C15) was chemically synthesized in the inventor's laboratory, as described in Example 5, infra, (purity of 99.8%) was prepared by dissolving in NaOH solution and then in 0.35% Tween 80 with pH7.5.
# Total of 24 male athymic BALB/c nude mice between 4 and 5 weeks of age were bred and maintained in specific pathogen free condition.
# Human prostate carcinoma DU145 tumor was implanted and maintained subcutaneously in the flank of athymic nude mice. Prior to orthotopic implantation, the tumor was harvested in log phase. The peripheral tumor tissue was collected and minced to small pieces of one cubic millimeter each.
# The mice were anesthetized for surgical orthotopic implantation. A small incision was made along the midline of the lower abdomen. After proper exposure of the bladder and prostate, the capsule of the prostate was opened and three pieces of DU145 tumor fragments were inserted into the capsule. The capsule was then closed using 8-0 suture, and the abdomen was closed using a 6-0 surgical suture.
# The mice bearing orthotopic DU145 were randomly divided into control and test groups of eight mice each at the second day after tumor implantation. The iso-C15 prepared above at doses 35 and 70 mg/kg and PBS were administered by gavage once a day in low dose and high dose test groups and control group, respectively, for […].
# as §3, §4
compound,measurement,setting,value
"CC(C)CCCCCCCCCCCC(=O)O [iso-C15, 13-methyltetradecanoic acid]",Inhibitory rate (%) on cell growth,[1]; 15 μg/ml,28.1%
same,Inhibitory rate (%) on cell growth,[1]; 30 μg/ml,51.2%
same,Inhibitory rate (%) on cell growth,[1]; 60 μg/ml,62.1%
same,Inhibitory rate (%) on cell growth,[1]; 90 μg/ml,68.8%
same,inhibition at 15 µg/mL,"[1]; Homo sapiens, SGC-7901, 24 h, 15 μg/ml, read-out: Inhibitory rate (%) on cell growth",27.5%
same,inhibition at 30 µg/mL,"[1]; Homo sapiens, SGC-7901, 24 h, 30 μg/ml, read-out: Inhibitory rate (%) on cell growth",50.5%
same,inhibition at 60 µg/mL,"[1]; Homo sapiens, SGC-7901, 24 h, 60 μg/ml, read-out: Inhibitory rate (%) on cell growth",63.1%
same,inhibition at 90 µg/mL,"[1]; Homo sapiens, SGC-7901, 24 h, 90 μg/ml, read-out: Inhibitory rate (%) on cell growth",68.4%
same,Inhibitory rate (%) on cell growth,[2]; 7.5 μg/ml,27.1%
same,Inhibitory rate (%) on cell growth,[2]; 15 μg/ml,51.2%
same,Inhibitory rate (%) on cell growth,[2]; 30 μg/ml,72.2%
same,Inhibitory rate (%) on cell growth,[2]; 60 μg/ml,83.7%
same,Inhibitory rate (%) on cell growth,[2]; 90 μg/ml,87.2%
same,inhibition at 7.5 µg/mL,"[2]; Homo sapiens, K562, 24 h, read-out: Inhibitory rate (%) on cell growth, 7.5 μg/ml, dissolved with 10% ethanol",26.2%
same,inhibition at 15 µg/mL,"[2]; Homo sapiens, K562, 24 h, read-out: Inhibitory rate (%) on cell growth, 15 μg/ml, dissolved with 10% ethanol",50.1%
same,inhibition at 30 µg/mL,"[2]; Homo sapiens, K562, 24 h, read-out: Inhibitory rate (%) on cell growth, 30 μg/ml, dissolved with 10% ethanol",71.6%
same,inhibition at 60 µg/mL,"[2]; Homo sapiens, K562, 24 h, read-out: Inhibitory rate (%) on cell growth, 60 μg/ml, dissolved with 10% ethanol",83.1%
same,inhibition at 90 µg/mL,"[2]; Homo sapiens, K562, 24 h, read-out: Inhibitory rate (%) on cell growth, 90 μg/ml, dissolved with 10% ethanol",85.3%
same,"signs of toxicity (body weight curve, histology slides)",[3]; 70 mg/kg oral,no signs of toxicity
same,TIR (tumor inhibition rate),"[3]; 70 mg/kg oral, 40 days",64.9%
same,tumor weight mean ± SD,"[3]; 70 mg/kg oral, 40 days",0.071 ± 0.052 g
same,mice in which the implanted tumor did not grow,"[3]; 70 mg/kg, eight mice per group",two
same,"apoptotic cells stained, POD",normal human PBLs,few stained apoptotic cells were seen
same,Mean tumor weight,[4]; 35 mg/kg,493.25 mg
same,TIR (tumor inhibition rate),[4]; 35 mg/kg,54.8%
same,Mean tumor weight,[4]; 70 mg/kg,168.00 mg
same,TIR (tumor inhibition rate),[4]; 70 mg/kg,84.6%
same,"signs of toxicity (body weight curve, histology slides)",[4]; 35 and 70 mg/kg oral,no signs of toxicity
same,mice in which the implanted tumor did not grow,"[4]; high dose, 70 mg/kg, eight mice per group",four

# Reference: US7070965B1, “Small molecule anticancer compounds and related production process” (priority 1998, dated 2006)
